Patent US11957766B2, “HNQO1-activatable fluorescent probe for imaging cancer cells in-vitro and in-vivo” (Texas Tech University System, priority 2019, dated 2024)

Key:
A549, H460 cells = test: Fluorescence microscopy of NIR-ASM in NQO1 expressing cancer cells; format: cell-based, human
Experimental: Detection of NQO1 in live cells. Inspired by the excellent biocompatibility, the inventors investigated its performance in both NQO1 expressing cancer cells (A549, H460) and NQO1 non-expressing normal cells (IMR90, HUVEC). All cells were incubated with NIR-ASM (10 μM) for 60 min, washed with PBS and were imaged under a confocal microscope after counterstaining the nuclei with Hoechst 33342 (FIG. 12A). […] The higher expression of NQO1 protein in A549 and H460 cells and its absence in normal cells, IMR90 and HUVEC as found with western blot analysis correlated with the probe reactivity in cells (FIG. 12B). […] Cell sorting using flow cytometry is a well-established technology in clinical diagnostics and biomedical research. To assess the applicability of the NIR-ASM to rapidly detect and quantify in both cancer and normal cells based on NQO1 expression, the probe was incubated with cell suspensions for 60 min, and about 1×10^4 cells were analyzed on a flow cytometer.
Fluorescence imaging. Both cancer and normal cells were seeded into 6-well plates and cultured overnight in respective media at 37° C. Cells were treated with 10 μM NIR-ASM and incubated at 37° C. for 60 min. They were then treated with nuclear stain Hoechst 33342 for 5 min. Finally, the medium was replaced with PBS and the live cells were imaged using a multiphoton confocal fluorescence microscope (λex/em=488/644 nm). […]

hNQO1 in T98G cells = test: siRNA knockdown of NQO1 and NQ-DCP activation; format: cell-based, human; details: compared with a siRNA control, 10 μM probe
Experimental: Evaluation of Specificity in Cancer Cells. To show the substrate selectivity of NQ-DCP for hNQO1, T98G cells were pretreated with 100 nM of NQO1 inhibitor ES936 for 6 h and incubated 10 μM of NQ-DCP.
Knockdown of NQO1 by Small Interfering RNA (siRNA). NQO1 siRNA (a pool of 3 target-specific 19-25 nt siRNAs, Santa Cruz Biotechnology, Inc., (Dallas, TX, USA) and scrambled siRNAs were introduced into cells using the X-tremeGENE siRNA transfection reagent (Roche, Basel, Switzerland) according to the manufacturer's instructions with 80 pmol of NQO1 siRNA and 10 μl of transfection reagent per well of a six-well plate for T98G cells.

subcutaneous U87MG tumor = test: Fluorescence imaging of hNQO1 in subcutaneous U87MG tumor-bearing mice with NQ-DCP; format: in vivo
Experimental: Fluorescence Imaging of hNQO1 in U87MG Tumor-Bearing Mice. With the prominent performance of NQ-DCP in cellular fluorescence imaging, the inventors further applied this probe to evaluate its capacity for the noninvasive fluorescence imaging of hNQO1 in vivo. NQ-DCP (10 mg/kg, 50 μL) was intravenously injected into sub-cutaneous U87MG tumor-bearing mice. The whole-body fluorescence was imaged with a Caliper IVIS Spectral imaging system. […] The host organs and tumor from the mice administered with NQ-DCP were harvested and their fluorescence was analyzed ex vivo using the IVIS to confirm the tumor-selective targeting ability of NQ-DCP. […] The application of NQ-DCP to image hNQO1 activity was also investigated in intracranial U87MG tumor-bearing mice. Tumor xenografts were established by implanting exponentially growing U87MG-Luc cells by stereotaxic injection into mice brain and the tumor growth was assessed by quantitative bioluminescence using IVIS (in vivo imaging system) (FIG. 7C). […] Therefore, the inventors performed intracranial injection of NQ-DCP (100 μM, 5 μL) to both healthy and tumor-bearing mice, the brain was isolated after 30 min and fluorescence images acquired.
Four-week-old male and female NCG and athymic nude mice were housed in a micro ventilated caging system in a sterile environment and fed ad-libitum with standard irradiated research rodent diet and water. […]

Compound	fluorescence signal in NQO1 expressing cancer cells (A549, H460 cells; 10 μM, 60 min)	cell permeability (A549, H460 cells; inferred from intracellular activation)	decrease in fluorescence after siRNA silencing of the hNQO1 gene (hNQO1 in T98G cells)	time of maximum fluorescence in the tumor (subcutaneous U87MG tumor; 10 mg/kg, 50 μL, intravenous)	ex vivo fluorescence in tumor and organs (subcutaneous U87MG tumor; organs harvested after intravenous NQ-DCP, 30 min)
CC1=C(C)C(=O)C(C(C)(C)CC(=O)Nc2ccc(/C=C/C3=CC(=C(C#N)C#N)CC(C)(C)C3)cc2)=C(C)C1=O [NIR-ASM, (E)-N-(4-(2-(3-(dicyanomethylene)-5,5-dimethylcyclohex-1-en-1-yl)vinyl)phenyl)-3-methyl-3-(2,4,5-trimethyl-3,6-dioxocyclohexa-1,4-dien-1-yl)butanamide]	bright NIR fluorescence signal	confirm the cell permeability	–	–	–
CC1=C(C)C(=O)C(C(C)(C)CC(=O)Oc2ccc(/C=C/C3=CC(=C(C#N)C#N)CC(C)(C)C3)cc2)=C(C)C1=O [NQ-DCP]	–	–	90-95%	30 min	selectively observed in the tumor and not in any other major organs
